This note sets out measurements from article PMC9643419 (Nature Communications, 2022).

The target in one experiment is TEAD1 (Homo sapiens, UniProt P28347). As to the kind of experiment: cell-based TEAD1 palmitoylation (alkyne palmitic acid labelling, HEK293A).
Another experiment concerns the target TEAD2 (Homo sapiens, UniProt Q15562). As to the kind of experiment: in vitro autopalmitoylation of recombinant TEAD2 with alkyne palmitoyl-CoA, click/streptavidin blot. The class given is biochemical.
Another experiment has as its target TEAD4 (Homo sapiens, UniProt Q15561). Description: TEAD4 biochemical palmitoylation assay.

Chain of TEAD2 (Q15562 217-447): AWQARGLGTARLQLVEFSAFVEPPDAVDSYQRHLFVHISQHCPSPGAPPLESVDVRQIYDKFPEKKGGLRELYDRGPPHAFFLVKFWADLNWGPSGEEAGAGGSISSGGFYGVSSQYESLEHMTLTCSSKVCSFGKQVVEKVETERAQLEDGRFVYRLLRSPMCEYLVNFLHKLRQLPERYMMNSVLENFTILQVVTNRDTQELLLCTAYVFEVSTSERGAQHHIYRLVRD
Chain of TEAD1 (P28347 whole entry): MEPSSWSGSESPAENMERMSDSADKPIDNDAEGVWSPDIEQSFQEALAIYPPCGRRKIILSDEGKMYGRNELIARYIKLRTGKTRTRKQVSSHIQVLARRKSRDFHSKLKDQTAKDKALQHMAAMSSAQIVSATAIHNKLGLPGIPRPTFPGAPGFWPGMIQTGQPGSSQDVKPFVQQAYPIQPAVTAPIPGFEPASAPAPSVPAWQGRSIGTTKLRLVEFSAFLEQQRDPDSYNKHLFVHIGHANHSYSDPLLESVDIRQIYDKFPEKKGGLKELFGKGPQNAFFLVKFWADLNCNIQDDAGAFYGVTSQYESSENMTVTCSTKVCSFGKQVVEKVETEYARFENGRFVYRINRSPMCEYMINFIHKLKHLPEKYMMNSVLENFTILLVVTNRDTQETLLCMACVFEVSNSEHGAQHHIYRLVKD
Chain of TEAD4 (Q15561 whole entry): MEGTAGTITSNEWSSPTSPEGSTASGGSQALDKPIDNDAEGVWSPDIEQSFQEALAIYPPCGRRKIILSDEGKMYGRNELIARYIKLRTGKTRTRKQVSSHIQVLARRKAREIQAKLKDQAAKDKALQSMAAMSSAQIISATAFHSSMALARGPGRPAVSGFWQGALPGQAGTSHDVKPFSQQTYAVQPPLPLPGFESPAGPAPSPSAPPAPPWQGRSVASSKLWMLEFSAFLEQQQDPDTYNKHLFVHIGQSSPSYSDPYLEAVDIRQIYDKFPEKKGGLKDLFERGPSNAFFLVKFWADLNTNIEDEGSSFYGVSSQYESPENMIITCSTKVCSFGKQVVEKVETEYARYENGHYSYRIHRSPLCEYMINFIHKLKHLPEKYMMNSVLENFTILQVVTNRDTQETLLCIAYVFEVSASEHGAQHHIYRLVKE

For the compound `O=C(CSc1nnc[nH]1)Nc1ccc(C23CC4CC(CC(C4)C2)C3)cc1` [MGH-CP1, 2-((4H−1,2,4-triazol-3-yl)thio)-N-(4-((1 S,3 R,5 S)-adamantan-1-yl)phenyl)acetamide], the “cell-based TEAD1 palmitoylation (alkyne palmitic acid labelling, HEK293A)” value at TEAD1 is “MGH-CP12 inhibits TEAD1 palmitoylation in cells more potently than MGH-CP1 (Fig. 1d)”.
Usually IC50 stands for the midpoint of a concentration-inhibition curve. Take `O=C(CSc1nnc[nH]1)Nc1ccc(C23CC4CC(CC(C4)C2)C3)cc1Br` [MGH-CP12, 2-((4H−1,2,4-triazol-3-yl)thio)-N-(4-((1 S,3 R,5 S)-adamantan-1-yl)−2-bromophenyl)acetamide]: the IC50 at TEAD2 amounted to 106 nM; against TEAD4, 852 nM. Besides, the “cell-based TEAD1 palmitoylation (alkyne palmitic acid labelling, HEK293A)” value at TEAD1 was “MGH-CP12 inhibits TEAD1 palmitoylation in cells more potently than MGH-CP1 (Fig. 1d)”.
For the compound `O=C(CSc1nncs1)Nc1ccc(C23CC4CC(CC(C4)C2)C3)cc1` [MGH-CP28, 2-((1,3,4-thiadiazol-2-yl)thio)-N-(4-((1 S,3 R,5 S)-adamantan-1-yl)phenyl)acetamide], the IC50 at TEAD2 came to 617 nM.
